{"source": "patent US12370235B2", "about": "“Synthetic, non-natural antimicrobial peptides inspired by Staphylococcus auricularis delta toxin” (University of Saskatchewan, priority 2021, dated 2025)", "key": {"[1]": {"tested_on": "Mannheimia haemolytica (clinical, disease-causing isolate)", "experiment": "MIC, broth dilution", "format": "cell-based", "settings": "Table 7", "method": "(§1) MIC determination. MICs were measured using peptides with 95% purity. For bacterial studies, cation-adjusted Mueller Hinton (MH) broth was used as the growth medium whereas Yeast Peptone Dextrose (YPD; 10 g/L yeast extract, 20 g/L peptone, 20 g/L dextrose) was used for Candida spp. and other yeast. Microorganisms were diluted to an optical density of […] in MH or YPD broth and a 180 μl volume was mixed with 20 μl of peptide arrayed as a 2-fold dilution series in a flat-bottom 96-well microtitre plate. A control was performed using 20 μl of sterile water. Plates were incubated as standing cultures overnight at 37° C.\n(§2) Determination of minimum inhibitory concentrations. The MICs were measured for bioactive peptides identified from the initial screen. For bacterial studies, cation-adjusted Mueller Hinton (MH) broth was used as the growth medium whereas YPD was used for C. albicans. Bacterial cultures were diluted to a OD value of 6×10^−4 in MH broth and a 180 μl volume was mixed with 20 μl of peptide arrayed as 2-fold dilution series in a 96-well plate. For the positive control, 20 μl of sterile water was used. Plates were incubated as standing cultures overnight at 37° C. The lowest peptide concentration that resulted no observed microbial growth after an overnight treatment was defined as the MIC."}, "Streptococcus equi": {"tested_on": "Streptococcus equi", "experiment": "MIC, broth dilution", "format": "cell-based", "settings": "clinical isolate", "method": "as §1, §2"}, "S. equorum": {"tested_on": "S. equorum", "experiment": "MIC, broth dilution", "format": "cell-based", "settings": "isolate from a healthy dairy cow", "method": "as §1, §2"}, "Mycoplasma bovis": {"tested_on": "Mycoplasma bovis", "experiment": "MIC, broth dilution", "format": "cell-based", "method": "as §1, §2"}, "Klebsiella pneumoniae": {"tested_on": "Klebsiella pneumoniae", "experiment": "MIC, broth dilution", "format": "cell-based", "method": "as §1, §2"}, "Pasteurella multocida": {"tested_on": "Pasteurella multocida", "experiment": "MIC, broth dilution", "format": "cell-based", "method": "as §1, §2"}, "[2]": {"tested_on": "Enterococcus faecalis ATCC 2912", "experiment": "MIC, broth dilution", "format": "cell-based", "method": "as §1, §2"}, "S. scuri": {"tested_on": "S. scuri", "experiment": "MIC, broth dilution", "format": "cell-based", "settings": "isolate from a healthy dairy cow", "method": "as §1, §2"}, "[3]": {"tested_on": "Streptococcus dysagalactiae", "experiment": "MIC, broth dilution", "format": "cell-based", "settings": "clinical isolate", "method": "as §1, §2"}, "[4]": {"tested_on": "Pseudomonas aeruginosa ATCC 27853", "experiment": "MIC, broth dilution", "format": "cell-based", "method": "as §1, §2"}, "Streptococcus canis": {"tested_on": "Streptococcus canis", "experiment": "MIC, broth dilution", "format": "cell-based", "settings": "clinical isolate", "method": "as §1, §2"}, "S. epidermidis": {"tested_on": "S. epidermidis", "experiment": "MIC, broth dilution", "format": "cell-based", "settings": "isolate from a healthy dairy cow", "method": "as §1, §2"}, "Streptococcus agalactiae": {"tested_on": "Streptococcus agalactiae", "experiment": "MIC, broth dilution", "format": "cell-based", "settings": "clinical isolate", "method": "as §1, §2"}, "S. auricularis": {"tested_on": "S. auricularis", "experiment": "MIC, broth dilution", "format": "cell-based", "settings": "isolate from a healthy dairy cow", "method": "as §1, §2"}, "[5]": {"tested_on": "Streptococcus zooepidermicus", "experiment": "MIC, broth dilution", "format": "cell-based", "settings": "clinical isolate", "method": "as §1, §2"}, "[6]": {"tested_on": "Saccharomyces cerevisiae AR 400", "experiment": "MIC, YPD broth, CDC and FDA AR Candida isolate panel", "format": "cell-based", "settings": "Table 9 top part: titrations from 1.56 to 100 μg/mL", "in_short": "(§3)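 Peptides of 95% purity were tested as 2-fold dilution series against cells adjusted to optical density […] in YPD broth. Growth read after overnight static incubation at 37 °C, with sterile water as control.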"}, "[7]": {"tested_on": "Candida duobushaemulonii AR 391", "experiment": "MIC, YPD broth, CDC and FDA AR Candida isolate panel", "format": "cell-based", "settings": "Table 9 top part: titrations from 1.56 to 100 μg/mL", "in_short": "as §3"}, "Kodamae ohmeri AR 396": {"tested_on": "Kodamae ohmeri AR 396", "experiment": "MIC, YPD broth, CDC and FDA AR Candida isolate panel", "format": "cell-based", "settings": "Table 9 top part: titrations from 1.56 to 100 μg/mL", "in_short": "as §3"}, "[8]": {"tested_on": "Saccharomyces cerevisiae AR 399", "experiment": "MIC, YPD broth, CDC and FDA AR Candida isolate panel", "format": "cell-based", "settings": "Table 9 top part: titrations from 1.56 to 100 μg/mL", "in_short": "as §3"}, "Candida krusei AR 397": {"tested_on": "Candida krusei AR 397", "experiment": "MIC, YPD broth, CDC and FDA AR Candida isolate panel", "format": "cell-based", "settings": "Table 9 top part: titrations from 1.56 to 100 μg/mL", "in_short": "as §3"}, "[9]": {"tested_on": "Candida haemulonii AR 393", "experiment": "MIC, YPD broth, CDC and FDA AR Candida isolate panel", "format": "cell-based", "settings": "Table 9 top part: titrations from 1.56 to 100 μg/mL", "in_short": "as §3"}, "[10]": {"tested_on": "Candida lusitaniae AR 398", "experiment": "MIC, YPD broth, CDC and FDA AR Candida isolate panel", "format": "cell-based", "settings": "Table 9 top part: titrations from 1.56 to 100 μg/mL", "in_short": "as §3"}, "[11]": {"tested_on": "Candida duobushaemulonii AR 394", "experiment": "MIC, YPD broth, CDC and FDA AR Candida isolate panel", "format": "cell-based", "settings": "Table 9 top part: titrations from 1.56 to 100 μg/mL", "in_short": "as §3"}, "[12]": {"tested_on": "Candida duobushaemulonii AR 392", "experiment": "MIC, YPD broth, CDC and FDA AR Candida isolate panel", "format": "cell-based", "settings": "Table 9 top part: titrations from 1.56 to 100 μg/mL", "in_short": "as §3"}, "MRSA ATCC 33592": {"tested_on": "MRSA ATCC 33592", "experiment": "SYTOX Green membrane integrity assay", "format": "cell-based, Staphylococcus aureus", "settings": "one fourth to four-fold the MIC", "method": "Membrane disruption and depolarization are commonly reported mechanisms of AMP action. Two indirect assays that rely on fluorescent dyes were employed to assess the interaction of STIP3-29 and D-STIP3-29 with bacterial membranes. First, changes to SYTOX fluorescence was measured when MRSA ATCC 33592 was treated with increasing peptide concentrations ranging from one fourth to four-fold the MIC. […] Next, DiSC3(5), a cationic dye that binds to polarized membranes was used to report on possible depolarization related to AMP treatment. […] Thus, without wishing to be bound by theory, a more conservative explanation of the results is that the cationic peptides increase membrane permeability to SYTOX and that the like-charge of the AMPs to the reporter of polarization may confound the interpretation of the indirect assay. For example, the AMPs may simply displace the self-quenching DiSC3(5) molecules from the membrane surface without causing depolarization."}, "[13]": {"tested_on": "S. aureus / MRSA (ATCC MP-2 panel)", "format": "cell-based, Staphylococcus aureus", "in_short": "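MIC by broth microdilution in cation-adjusted Mueller Hinton broth: cultures diluted to OD 6×10^−4 and exposed to 2-fold peptide dilution series, standing overnight at 37° C. MIC = lowest peptide concentration with no visible growth. Panel: one methicillin-sensitive S. aureus plus 7 MRSA strains of distinct SCCmec genotypes.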"}, "C. albicans MYA-2876": {"tested_on": "C. albicans MYA-2876", "experiment": "MIC, YPD broth", "format": "cell-based, Candida albicans", "settings": "Table 8", "in_short": "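Minimum inhibitory concentrations against Candida albicans were determined in YPD broth (10 g/L yeast extract, 20 g/L peptone, 20 g/L dextrose) using peptides of 95% purity. A 180 μl volume of diluted yeast was combined with 20 μl of peptide in a 2-fold dilution series in 96-well plates, with sterile water as control, then incubated standing overnight at 37° C.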"}, "C. albicans Y537": {"tested_on": "C. albicans Y537", "experiment": "MIC, YPD broth", "format": "cell-based, Candida albicans", "settings": "Table 8"}, "M. luteus ATCC 4698": {"tested_on": "M. luteus ATCC 4698", "experiment": "MIC, broth dilution", "format": "cell-based, Micrococcus luteus", "in_short": "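MIC defined as the lowest peptide level giving no growth after overnight standing incubation at 37° C. Bacteria at OD 6×10^−4 in cation-adjusted MH broth met 2-fold serial peptide dilutions; peptide purity 95%.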"}}, "note": "Like-named read-outs stand apart in the source and are kept apart here. Ends that are not written are not given here."}
{"substance": "TVGGLVKWILKTVKKFA-NH2 [STIP3-29, TVGGLVKWILKTVKKFA-NH2]", "values": [{"measurement": "MIC", "setting": "[1]", "value": 6.25, "unit": "µg/mL"}, {"measurement": "MIC", "setting": "Streptococcus equi", "value": 3.13, "unit": "µg/mL"}, {"measurement": "MIC", "setting": "S. equorum", "value": 3.13, "unit": "µg/mL"}, {"measurement": "MIC (μg/ml)", "setting": "Mycoplasma bovis", "value": "> (> indicates no inhibition up to 50 μg/ml)"}, {"measurement": "MIC (μg/ml)", "setting": "Klebsiella pneumoniae", "value": "> (> indicates no inhibition up to 50 μg/ml)"}, {"measurement": "MIC (μg/ml)", "setting": "Pasteurella multocida", "value": "> (> indicates no inhibition up to 50 μg/ml)"}, {"measurement": "MIC", "setting": "[2]", "value": 12.5, "unit": "µg/mL"}, {"measurement": "MIC", "setting": "S. scuri", "value": 3.13, "unit": "µg/mL"}, {"measurement": "MIC", "setting": "[3]", "value": 3.13, "unit": "µg/mL"}, {"measurement": "MIC (μg/ml)", "setting": "[4]", "value": "> (> indicates no inhibition up to 50 μg/ml)"}, {"measurement": "MIC", "setting": "Streptococcus canis", "value": 6.25, "unit": "µg/mL"}, {"measurement": "MIC", "setting": "S. epidermidis", "value": 3.13, "unit": "µg/mL"}, {"measurement": "MIC", "setting": "Streptococcus agalactiae", "value": 3.13, "unit": "µg/mL"}, {"measurement": "MIC", "setting": "S. auricularis", "value": 1.56, "unit": "µg/mL"}, {"measurement": "MIC", "setting": "[5]", "value": 3.13, "unit": "µg/mL"}, {"measurement": "MIC (μg/mL) Saccharomyces cerevisiae AR 400", "setting": "[6]", "value": 25, "unit": "µg/mL"}, {"measurement": "MIC (μg/mL) Candida duobushaemulonii AR 391", "setting": "[7]", "value": 25, "unit": "µg/mL"}, {"measurement": "MIC (μg/mL) Kodamae ohmeri AR 396", "setting": "Kodamae ohmeri AR 396", "value": 50, "unit": "µg/mL"}, {"measurement": "MIC (μg/mL) Saccharomyces cerevisiae AR 399", "setting": "[8]", "value": 50, "unit": "µg/mL"}, {"measurement": "MIC (μg/mL) Candida krusei AR 397", "setting": "Candida krusei AR 397", "value": 50, "unit": "µg/mL"}, {"measurement": "MIC (μg/mL) Candida haemulonii AR 393", "setting": "[9]", "value": 200, "unit": "µg/mL"}, {"measurement": "MIC (μg/mL) Candida lusitaniae AR 398", "setting": "[10]", "value": 25, "unit": "µg/mL"}, {"measurement": "MIC (μg/mL) Candida duobushaemulonii AR 394", "setting": "[11]", "value": 100, "unit": "µg/mL"}, {"measurement": "MIC (μg/mL) Candida duobushaemulonii AR 392", "setting": "[12]", "value": 50, "unit": "µg/mL"}, {"measurement": "SYTOX fluorescence change", "setting": "MRSA ATCC 33592", "value": "rapid and concentration dependent increase in SYTOX fluorescence"}, {"measurement": "MIC, MRSA", "setting": "[13]", "value": 6.25, "unit": "µg/mL"}, {"measurement": "MIC, MRSA", "setting": "[13]; molar", "value": 3.3, "unit": "µM"}, {"measurement": "fold improvement of activity (MIC)", "setting": "[13]; relative to STIP3-1, S. aureus / MRSA", "value": 16, "unit": "fold"}, {"measurement": "MIC C. albicans MYA-2876", "setting": "C. albicans MYA-2876", "value": 12.5, "unit": "µg/mL"}, {"measurement": "MIC C. albicans Y537", "setting": "C. albicans Y537", "value": 25, "unit": "µg/mL"}, {"measurement": "MIC M. luteus", "setting": "M. luteus ATCC 4698", "value": 1.56, "unit": "µg/mL"}, {"measurement": "MIC M. luteus", "setting": "M. luteus ATCC 4698; molar", "value": 0.85, "unit": "µM"}, {"measurement": "fold improvement of activity (MIC)", "setting": "M. luteus ATCC 4698; relative to STIP3-1, M. luteus", "value": 8, "unit": "fold"}]}
